Publication PMC10051310, “Antiproliferative Activity, Multikinase Inhibition, Apoptosis- Inducing Effects and Molecular Docking of Novel Isatin–Purine Hybrids” (Medicina, 2023)

Experiments:
[1] = tested on: HeLa; experiment: MTT cytotoxicity assay, HeLa; details: Homo sapiens, 24 h, read-out: In Vitro Cytotoxicity IC50 HeLa
Procedure: (§4) Sunitinib, a well-known multi-kinase inhibitor, was used as a reference compound.
(§5) After incubation for 48 h, the cells were treated with different concentrations of the synthesized hybrid compounds for 24 h. After the addition of 20 μL MTT (5 mg/mL), the plates were incubated for 4 h and then 100 μL Dimethyl sulfoxide (DMSO) was added to each well to dissolve the insoluble purple formazan formed. […] The relative cell viability percentage was calculated as (A570 of treated samples/A570 of untreated sample) × 100.

[2] = tested on: HepG2; experiment: MTT cytotoxicity assay, HepG2; details: Homo sapiens, HepG2, 24 h, read-out: In Vitro Cytotoxicity IC50 HepG2
Procedure: as §4, §5

[3] = tested on: MCF-7; experiment: MTT cytotoxicity assay, MCF-7; details: Homo sapiens, MCF7, 24 h, read-out: In Vitro Cytotoxicity IC50 MCF-7
Procedure: as §4, §5

[4] = tested on: MDA-MB-231; experiment: MTT cytotoxicity assay, MDA-MB-231; details: Homo sapiens, MDA-MB-231, 24 h, read-out: In Vitro Cytotoxicity IC50 MDA-MB-231
Procedure: as §4, §5

[5] = tested on: HepG2, MCF-7, MDA-MB-231 and HeLa cell lines; experiment: MTT cytotoxicity assay, summary over all four cell lines; details: Homo sapiens, read-out: IC50 against all tested cell lines
Procedure: as §4, §5

[6] = biological target: T1, CDK2 (Homo sapiens, UniProt P24941); experiment: In vitro CDK2 enzyme assay (ELISA kit); assay type: biochemical
T1 construct: purchased
Procedure: (§1) A human ELISA kit (Enzyme-Linked Immunosorbent Assay) for each of the above-mentioned protein kinase enzymes was used in this assay. […] The mixture was then incubated at room temperature for 2.5 h, after which the wells were washed and 100 μL of the prepared biotin antibody was added and incubated for 1 h at room temperature. After another washing step, 100 μL of streptavidin solution was added and incubated for 45 min at room temperature. The wells were then washed for a third time and 100 μL of TMB Substrate reagent was added and incubated for 30 min at room temperature. Finally, 50 μL of the stop solution was added, and the absorbance was read immediately at 450 nm. A standard curve was plotted showing concentration on the X-axis and absorbance on the Y-axis.

[7] = biological target: T2, EGFR (Homo sapiens, UniProt P00533); experiment: In vitro EGFR enzyme assay (ELISA kit); assay type: biochemical
T2 construct: purchased
Procedure: as §1

[8] = biological target: T3, Her2 (Homo sapiens, UniProt P04626); experiment: In vitro Her2 enzyme assay (ELISA kit); assay type: biochemical
T3 construct: purchased
Procedure: as §1

[9] = biological target: T4, VEGFR2 (Homo sapiens, UniProt P35968); experiment: In vitro VEGFR-2 enzyme assay (ELISA kit); assay type: biochemical
T4 construct: purchased
Procedure: as §1

[10] = tested on: HepG2 cells; experiment: Flow cytometry cell cycle analysis (propidium iodide); assay type: cell-based, human; details: HepG2, 9.61 μM, 24 h
Procedure: In addition, the cell cycle progression assay as described by Wang et al. was used to investigate the effect of compound 15 in HepG2 cells. The biological effect of compound 15 was measured by treating HepG2 cells with 9.61 μM of the compound for 24 h. The compound’s effect on cell cycle distribution was analyzed by comparing with untreated control cells (Table 3, Figure 6).
Flow cytometry analysis was carried out using an ab139418 Propidium Iodide flow cytometry kit/BD to detect the effect of the synthesized compound 15 on cell cycle distribution. First, HepG2 cell were seeded in 6-well plates at a density of 2 × 10^5/well and incubated for 24 h. HepG2 cells were then treated with 9.61 µM of compound 15 for 24 h. The treated cells were then fixed in 70% ethanol for 12 h at 4 °C, rinsed with cold PBS, incubated with 100 μL RNase A for 0.5 h at 37 °C, and stained with Propidium Iodide (400 μL) in the dark at RT for an extra 0.5 h. The stained cells were determined utilizing Epics XLMCL™ flow cytometer equipment (Beckman Coulter, Apeldoorn, Netherlands), and the results were collected and analyzed using Flowing software (version 2.5.1, Turku Centre for Biotechnology, Turku, Finland).

[11] = tested on: HepG2 cells; experiment: Annexin V/propidium iodide apoptosis flow cytometry; assay type: cell-based, human; details: HepG2, 9.61 μM, 24 h
Procedure: On the other hand, an Annexin V/propidium iodide (PI) double staining assay was conducted to identify the mode of cell death promoted by compound 15 (9.61 μM) following 24 h incubation with HepG2 cells.
Flow cytometry cell apoptosis analysis was conducted to examine the apoptotic effect of the synthesized compounds using the Annexin V-FITC cell apoptosis detection kit (Biovision, K101-100). First, HepG2 cells in a density of 2 × 10^5 were seeded in 6-well plates and incubated for 24 h. The cells were then treated with 9.61 µM compound 15 for 24 h. The treated cells were then detached with trypsin (5 min, 37 °C), collected by centrifugation (5 min, 300× g), washed twice with PBS, and resuspended in 0.1 mL of a 1X binding buffer. After that, the cells were double-stained with 5 μL Annexin V-FITC and 5 μL PI in the dark at room temperature for 15 min. The stained cells were evaluated using an Epics XL-MCL™ Flow Cytometer (Beckman Coulter, Apeldoorn, Netherlands) with an excitation wavelength of 488 nm and an emission wavelength of 530 nm, and the data were interpreted using the Flowing software (version 2.5.1, Turku Centre for Biotechnology, Turku, Finland).

[12] = tested on: BAX; experiment: BAX protein level ELISA in HepG2 cells; assay type: cell-based, human; details: HepG2, 9.61 μM, 24 h
Procedure: (§2) In these assays, compound 15 was used at its cytotoxic concentration (9.61 μM) and incubated with HepG2 cells for 24 h.
(§3) HepG2 cells were seeded in 96-well plates in triplicate and incubated for 24 h. The incubated cells were then treated with compound 15 at different concentrations. Cells treated with 0.1% DMSO (V/V) served as control. After 24 h incubation, caspase 3 and 9, BAX and Bcl-2 levels were determined using ELISA assay kits KHO1091 (Invitrogen^TM, Grand Island, NY, USA), EIA-4860 (DRU International INC., Mountainside, NJ, USA), EIA-4487 (DRU International INC., Mountainside, NJ, USA) and 99-0042 (Invitrogen^TM, Grand Island, NY, USA), respectively, according to the manufacturers’ procedures.

[13] = tested on: Bcl-2; experiment: Bcl-2 protein level ELISA in HepG2 cells; assay type: cell-based, human; details: HepG2, 9.61 μM, 24 h
Procedure: as §2, §3

[14] = tested on: Caspase 3; experiment: Caspase 3 protein level ELISA in HepG2 cells; assay type: cell-based, human; details: HepG2, 9.61 μM, 24 h
Procedure: as §2, §3

[15] = tested on: Caspase 9; experiment: Caspase 9 protein level ELISA in HepG2 cells; assay type: cell-based, human; details: HepG2, 9.61 μM, 24 h
Procedure: as §2, §3

T4 sequence (P35968 20-1356): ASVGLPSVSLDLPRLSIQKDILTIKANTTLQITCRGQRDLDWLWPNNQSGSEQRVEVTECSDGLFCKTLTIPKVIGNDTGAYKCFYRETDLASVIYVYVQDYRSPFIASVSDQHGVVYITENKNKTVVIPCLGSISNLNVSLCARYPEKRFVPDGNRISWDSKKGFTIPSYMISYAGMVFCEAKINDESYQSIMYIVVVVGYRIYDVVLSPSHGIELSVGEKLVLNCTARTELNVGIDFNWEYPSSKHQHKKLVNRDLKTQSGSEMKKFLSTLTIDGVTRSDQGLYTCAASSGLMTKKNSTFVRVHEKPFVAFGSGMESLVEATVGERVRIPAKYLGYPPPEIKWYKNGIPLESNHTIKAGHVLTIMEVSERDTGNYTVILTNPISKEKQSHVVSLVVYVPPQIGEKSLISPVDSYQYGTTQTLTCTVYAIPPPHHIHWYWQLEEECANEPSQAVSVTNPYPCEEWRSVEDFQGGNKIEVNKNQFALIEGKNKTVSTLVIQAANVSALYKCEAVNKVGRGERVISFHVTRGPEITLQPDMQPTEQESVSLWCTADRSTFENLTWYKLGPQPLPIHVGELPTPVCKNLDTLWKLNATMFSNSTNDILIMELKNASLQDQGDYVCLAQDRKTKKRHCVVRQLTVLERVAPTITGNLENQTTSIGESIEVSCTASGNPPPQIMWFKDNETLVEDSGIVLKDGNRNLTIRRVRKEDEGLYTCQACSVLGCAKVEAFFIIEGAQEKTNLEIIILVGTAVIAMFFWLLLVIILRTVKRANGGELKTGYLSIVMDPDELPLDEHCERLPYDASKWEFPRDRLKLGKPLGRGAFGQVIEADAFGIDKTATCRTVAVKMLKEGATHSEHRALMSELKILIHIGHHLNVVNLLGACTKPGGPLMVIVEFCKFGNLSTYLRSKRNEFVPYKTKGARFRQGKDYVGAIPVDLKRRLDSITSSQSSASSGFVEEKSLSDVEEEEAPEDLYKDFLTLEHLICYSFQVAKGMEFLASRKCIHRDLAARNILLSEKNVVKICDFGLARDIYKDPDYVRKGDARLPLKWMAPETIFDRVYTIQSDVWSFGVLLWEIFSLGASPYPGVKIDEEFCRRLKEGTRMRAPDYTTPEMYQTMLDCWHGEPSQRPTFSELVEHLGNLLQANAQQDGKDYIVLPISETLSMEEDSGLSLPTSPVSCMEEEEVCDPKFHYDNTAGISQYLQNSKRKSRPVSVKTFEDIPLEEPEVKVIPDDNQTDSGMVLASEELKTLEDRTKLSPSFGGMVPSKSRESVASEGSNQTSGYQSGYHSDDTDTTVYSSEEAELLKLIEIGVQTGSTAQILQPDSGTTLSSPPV
T2 sequence (P00533 25-1210): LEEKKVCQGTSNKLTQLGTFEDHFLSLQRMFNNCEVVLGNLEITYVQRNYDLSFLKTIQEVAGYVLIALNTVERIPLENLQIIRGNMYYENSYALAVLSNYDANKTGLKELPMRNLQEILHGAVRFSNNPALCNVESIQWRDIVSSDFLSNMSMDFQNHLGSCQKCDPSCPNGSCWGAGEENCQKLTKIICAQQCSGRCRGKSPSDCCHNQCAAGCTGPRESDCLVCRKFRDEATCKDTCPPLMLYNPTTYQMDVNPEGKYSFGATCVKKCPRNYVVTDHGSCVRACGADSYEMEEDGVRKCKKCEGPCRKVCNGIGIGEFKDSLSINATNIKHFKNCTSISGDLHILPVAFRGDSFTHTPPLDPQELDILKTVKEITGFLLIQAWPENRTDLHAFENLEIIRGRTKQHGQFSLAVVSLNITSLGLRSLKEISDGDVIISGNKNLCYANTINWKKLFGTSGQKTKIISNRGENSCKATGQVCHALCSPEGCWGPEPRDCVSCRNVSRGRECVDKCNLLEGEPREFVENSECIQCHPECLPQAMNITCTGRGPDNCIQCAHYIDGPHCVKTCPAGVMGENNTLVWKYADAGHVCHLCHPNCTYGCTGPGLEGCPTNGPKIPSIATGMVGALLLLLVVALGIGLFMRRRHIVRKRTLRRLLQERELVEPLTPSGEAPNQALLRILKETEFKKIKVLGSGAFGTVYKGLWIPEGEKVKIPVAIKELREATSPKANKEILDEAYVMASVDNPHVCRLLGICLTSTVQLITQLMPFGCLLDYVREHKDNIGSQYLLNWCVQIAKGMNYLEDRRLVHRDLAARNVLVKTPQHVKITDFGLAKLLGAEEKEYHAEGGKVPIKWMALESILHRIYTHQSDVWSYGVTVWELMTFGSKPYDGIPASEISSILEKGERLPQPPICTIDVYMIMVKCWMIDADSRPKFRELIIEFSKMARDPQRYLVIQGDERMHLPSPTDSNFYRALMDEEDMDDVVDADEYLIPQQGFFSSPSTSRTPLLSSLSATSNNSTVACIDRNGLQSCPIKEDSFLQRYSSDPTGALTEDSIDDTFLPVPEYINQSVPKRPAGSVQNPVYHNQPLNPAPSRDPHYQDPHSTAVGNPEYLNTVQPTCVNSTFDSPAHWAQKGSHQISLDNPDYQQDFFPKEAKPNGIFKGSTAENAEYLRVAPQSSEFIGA
T3 sequence (P04626 23-1255): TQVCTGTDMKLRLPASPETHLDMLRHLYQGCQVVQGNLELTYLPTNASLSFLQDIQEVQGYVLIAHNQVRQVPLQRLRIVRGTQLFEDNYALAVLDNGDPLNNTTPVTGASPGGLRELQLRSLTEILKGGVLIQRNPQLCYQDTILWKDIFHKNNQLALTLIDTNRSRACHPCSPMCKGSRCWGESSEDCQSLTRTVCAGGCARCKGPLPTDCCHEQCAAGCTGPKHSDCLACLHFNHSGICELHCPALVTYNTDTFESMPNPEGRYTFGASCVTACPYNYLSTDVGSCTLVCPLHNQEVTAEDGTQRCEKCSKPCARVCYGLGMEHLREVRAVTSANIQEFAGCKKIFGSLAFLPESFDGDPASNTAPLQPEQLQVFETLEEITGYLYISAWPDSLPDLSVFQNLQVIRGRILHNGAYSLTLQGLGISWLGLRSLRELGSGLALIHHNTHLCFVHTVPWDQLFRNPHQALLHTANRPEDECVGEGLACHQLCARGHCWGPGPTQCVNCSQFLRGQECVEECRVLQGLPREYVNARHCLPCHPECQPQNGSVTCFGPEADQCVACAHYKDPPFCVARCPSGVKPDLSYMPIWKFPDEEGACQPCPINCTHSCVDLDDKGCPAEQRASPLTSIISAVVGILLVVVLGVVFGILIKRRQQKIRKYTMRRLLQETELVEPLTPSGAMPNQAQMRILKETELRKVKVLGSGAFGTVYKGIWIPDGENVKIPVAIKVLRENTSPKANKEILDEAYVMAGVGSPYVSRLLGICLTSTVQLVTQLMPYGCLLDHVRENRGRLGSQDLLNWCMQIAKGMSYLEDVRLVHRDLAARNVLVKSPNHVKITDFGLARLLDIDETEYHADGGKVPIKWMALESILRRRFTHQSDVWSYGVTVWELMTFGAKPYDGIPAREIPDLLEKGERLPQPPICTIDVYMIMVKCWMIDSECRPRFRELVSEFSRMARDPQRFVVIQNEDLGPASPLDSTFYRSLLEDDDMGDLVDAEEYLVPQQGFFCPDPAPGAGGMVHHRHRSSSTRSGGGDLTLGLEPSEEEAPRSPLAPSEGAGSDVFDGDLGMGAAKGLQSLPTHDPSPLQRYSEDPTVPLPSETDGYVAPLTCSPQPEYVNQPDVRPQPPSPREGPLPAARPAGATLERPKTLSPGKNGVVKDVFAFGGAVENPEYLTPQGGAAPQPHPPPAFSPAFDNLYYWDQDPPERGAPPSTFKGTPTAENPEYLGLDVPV

`O=C1Nc2ccc(Cl)cc2C1=NNC(=O)c1ccc(Nc2ncnc3[nH]cnc23)cc1` [Compound 5, 4-((9H-purin-6-yl)amino)-N’-(5-chloro-2-oxoindolin-3-ylidene)benzohydrazide] showed a melting point of over 300 °C, an IC50 [1] of over 100 µM and an IC50 [2] of 88.1 ± 4 µM. It also gave an IC50 [3] of over 100 µM and an IC50 [4] of 82.1 ± 3.8 µM.

Work on `O=C1Nc2ccc(F)cc2C1=NNC(=O)c1ccc(Nc2ncnc3[nH]cnc23)cc1` [Compound 6, 4-((9H-purin-6-yl)amino)-N’-(5-fluoro-2-oxoindolin-3-ylidene)benzohydrazide] yielded a melting point of over 300 °C, an IC50 [1] of 30.7 ± 2.3 µM and an IC50 [2] of 42.4 ± 2.7 µM. The IC50 [3] was 22.3 ± 1.8 µM, the IC50 [4] was 19.1 ± 1.4 µM and the IC50 [5] was 18.1 to 53.5 µM.

Molecule `COc1ccc2c(c1)C(=NNC(=O)c1ccc(Nc3ncnc4[nH]cnc34)cc1)C(=O)N2` [Compound 8, 4-((9H-purin-6-yl)amino)-N’-(5-methoxy-2-oxoindolin-3-ylidene)benzohydrazide] has a melting point of over 300 °C, an IC50 [1] of 53.5 ± 3.2 µM and an IC50 [2] of 48.1 ± 2.9 µM. It also gave an IC50 [3] of 40.6 ± 2.7 µM, an IC50 [4] of 29.8 ± 2 µM and an IC50 [5] of 18.1 to 53.5 µM.

`O=C1Nc2ccc([N+](=O)[O-])cc2C1=NNC(=O)c1ccc(Nc2ncnc3[nH]cnc23)cc1` [Compound 9, 4-((9H-purin-6-yl)amino)-N’-(5-nitro-2-oxoindolin-3-ylidene)benzohydrazide] gave a melting point of over 300 °C, an IC50 [1] of 84.6 ± 4.1 µM and an IC50 [2] of 75.6 ± 3.5 µM. It also gave an IC50 [3] of 65 ± 3.4 µM and an IC50 [4] of 72.2 ± 3.4 µM.

With `O=C1Nc2ccc(F)cc2/C1=N\Nc1ncnc2[nH]cnc12` [Compound 13, (E)-3-(2-(9H-purin-6-yl)hydrazineylidene)-5-fluoroindolin-2-one] the melting point was over 300 °C, the IC50 [1] was 51.2 ± 3 µM and the IC50 [2] was 31.7 ± 2.1 µM. For the same molecule, the IC50 [3] was 38.8 ± 2.5 µM, the IC50 [4] was 45.2 ± 2.7 µM and the IC50 [5] was 18.1 to 53.5 µM.

Molecule `Cc1ccc2c(c1)C(=NNC(=O)c1ccc(Nc3ncnc4[nH]cnc34)cc1)C(=O)N2` [Compound 7, 4-((9H-purin-6-yl)amino)-N’-(5-methyl-2-oxoindolin-3-ylidene)benzohydrazide] has a melting point of over 300 °C, an IC50 [1] of over 100 µM and an IC50 [2] of 60.4 ± 3.2 µM. It also gave an IC50 [3] of 76.4 ± 3.7 µM and an IC50 [4] of 91.6 ± 4.5 µM.

Work on `O=C1Nc2ccccc2C1=NNC(=O)c1ccc(Nc2ncnc3[nH]cnc23)cc1` [Compound 4, 4-((9H-purin-6-yl)amino)-N’-(2-oxoindolin-3-ylidene)benzohydrazide] yielded a melting point of over 300 °C, an IC50 [1] of 62.4 ± 3.4 µM and an IC50 [2] of 54.6 ± 3.1 µM. It also gave an IC50 [3] of 47.3 ± 3 µM and an IC50 [4] of 59.7 ± 2.9 µM.

In the case of `COc1ccc2c(c1)/C(=N\Nc1ncnc3[nH]cnc13)C(=O)N2` [Compound 15, (E)-3-(2-(9H-purin-6-yl)hydrazineylidene)-5-methoxyindolin-2-one], the IC50 [6] is reported as 0.534 µM, the IC50 [7] is reported as 0.143 µM and the IC50 [8] is reported as 0.15 µM. For the same molecule, the IC50 [9] was 0.192 µM, the “accumulation at pre-G1 compared to control cells” value [10] was 10 fold and the “Cell Cycle Distribution (%) % Pre-G1” value ([10]; control 2.02) was 21.47%. For the same molecule, the “Cell Cycle Distribution (%) % G2/M” value ([10]; control 17.45) was 6.38%, the “Cell Cycle Distribution (%) % S” value ([10]; control 38.16) was 42.44% and the “Cell Cycle Distribution (%) % G0–G1” value ([10]; control 44.39) was 51.18%. For the same molecule, the “Apoptosis: Late” value ([11]; control 0.19%) was 12.58%, the “Apoptosis: Early” value ([11]; control 0.38%) was 1.86% and the “Apoptosis: Necrosis” value ([11]; control 1.45%) was 7.03%. The viability at 9.61 µM ([11]; Homo sapiens, control 97.98%, read-out: Apoptosis: Viable) was 78.5%, the “BAX Expression” value ([12]; control 83.88 ± 23) was 279.1 ± 8.15 pg/mL and the “BAX Fold” value ([12]; relative to control = 1) was 3.38 fold. For the same molecule, the “Bcl-2 Expression” value ([13]; control 10.67 ± 0.83) was 4.593 ± 0.22 pg/mL, the “Bcl-2 protein level decrease” value ([13]; fold decrease versus control) was 2.30 fold and the “Bcl-2 Fold” value ([13]; relative to control = 1) was 0.43 fold. For the same molecule, the “Caspase 3 Expression” value ([14]; control 93.23 ± 15.5) was 368.4 ± 20.7 pg/mL, the “Caspase 3 Fold” value ([14]; relative to control = 1) was 3.95 fold and the “Caspase 9 Expression” value ([15]; control 4.52 ± 1.27) was 14.07 ± 0.58 pg/mL. The “Caspase 9 Fold” value ([15]; relative to control = 1) was 3.11 fold, the IC50 [1] was 8.93 ± 0.8 µM and the IC50 [2] was 9.61 ± 0.8 µM. It also gave an IC50 [3] of 10.8 ± 0.9 µM, an IC50 [4] of 14.9 ± 1.2 µM and an IC50 [5] of 8.93 to 14.9 µM.

`O=C1Nc2ccc([N+](=O)[O-])cc2/C1=N\Nc1ncnc2[nH]cnc12` [Compound 16, (E)-3-(2-(9H-purin-6-yl)hydrazineylidene)-5-nitroindolin-2-one] showed a melting point of over 300 °C, an IC50 [1] of 69.5 ± 3.6 µM and an IC50 [2] of 39.7 ± 2.5 µM. It also gave an IC50 [3] of 58.3 ± 3.2 µM and an IC50 [4] of 67.4 ± 3.2 µM.

In the case of `O=C1Nc2ccc(Cl)cc2/C1=N\Nc1ncnc2[nH]cnc12` [Compound 12, (E)-3-(2-(9H-purin-6-yl)hydrazineylidene)-5-chloroindolin-2-one], the melting point is reported as 296 to 298 °C, the IC50 [1] is reported as 46.7 ± 2.8 µM and the IC50 [2] is reported as 26.4 ± 1.8 µM. The IC50 [3] was 33 ± 2.3 µM, the IC50 [4] was 41.3 ± 2.5 µM and the IC50 [5] was 18.1 to 53.5 µM.

Work on `Cc1ccc2c(c1)/C(=N\Nc1ncnc3[nH]cnc13)C(=O)N2` [Compound 14, (E)-3-(2-(9H-purin-6-yl)hydrazineylidene)-5-methylindolin-2-one] yielded a melting point of 294 to 296 °C, an IC50 [1] of 43.5 ± 2.7 µM and an IC50 [2] of 18.1 ± 1.3 µM. It also gave an IC50 [3] of 27.5 ± 2.1 µM, an IC50 [4] of 32.5 ± 2.2 µM and an IC50 [5] of 18.1 to 53.5 µM.

For `CCN(CC)CCNC(=O)c1c(C)[nH]c(/C=C2\C(=O)Nc3ccc(F)cc32)c1C` [Sunitinib, reference compound], the IC50 [1] was 7.48 ± 0.6 µM, the IC50 [2] was 6.82 ± 0.5 µM and the IC50 [3] was 5.19 ± 0.4 µM. The IC50 [4] was 8.41 ± 0.7 µM.

Work on `O=C1Nc2ccccc2/C1=N\Nc1ncnc2[nH]cnc12` [Compound 11, (E)-3-(2-(9H-purin-6-yl)hydrazineylidene)indolin-2-one] yielded a melting point of over 300 °C, an IC50 [1] of 17.6 ± 1.4 µM and an IC50 [2] of 12.9 ± 1 µM. For the same molecule, the IC50 [3] was 15.6 ± 1.3 µM and the IC50 [4] was 24.8 ± 1.9 µM.
